Patent US20250255847A1, “[…]s: Novel Drugs for Triple Negative Breast Cancer” (SIMMARON RSEARCH INC, priority 2024, published 2025)

Columns and labels:
TM00096 human TNBC tumor = assay: Tumor growth in patient-derived xenograft (PDX) mouse model of TNBC; type: in vivo; conditions: for tumor growth by infrared 2DG image analysis: 2 mg/Kg Bwt i.p., end of 4th week; for final tumor volume (mean±SD): after 4 weeks (2 weeks dosing 2 mg/Kg Bwt i.p. alternate days + 2 weeks follow-up), vehicle 949.15±769.15; for initial tumor volume (mean±SD): day 0, 2 mg/Kg Bwt i.p. every alternate day for two weeks
Protocol: FIG. 12 illustrates an embodiment of the present invention and illustrates SIM-1 and SIM-2 arrest the growth of human TNBC tumor in patient-derived xenograft mouse model. TM00096 tumor (origin of invasive ductal carcinoma isolated from a person) was seeded in the flank of 6-week-old female SCID mice by Jackson Laboratory and then shipped to our research facility. Once the tumor reached ˜4 mm in size (˜30 mm^3 in volume), n=6 mice/group were treated by vehicle (5% DMSO), SIM-1 and SIM-2 (2 mg/Kg Bwt mixed with 5% DMSO) via i.p. for 2 weeks in every alternate day. The tumor size was monitored accordingly during the treatment and two more weeks after the last dose to evaluate the recurrence. After 4 weeks, Mice received IRDye 800-tagged 2DG (2-deoxy glucose) probe via tail vein and then imaged in infrared scanner. […] Red spots enclosed in a squares are tumor tissue. Other red spots are non-specific organs with high metabolic activity. (B) Tumor size was measured every alternate day for 4 weeks by a digital caliper and then the volume was calculated using the formula 0.5*Length*Width^2. […] (D) Body weight was recorded during the course of the study to monitor the adverse metabolic outcome due to the drug administration. (E) The heart rate was monitored at 0-, 7-, 14-, and 28-days post SIM-1 and SIM-2 treatments by MouseStat Jr console (Kent Scientific) as per the manufacturer's instruction. (F) At the end of the study, the gross motor performance was recorded for n=6 (i) vehicle, (ii) SIM-1-, and (iii) SIM-2-treated mice. […] Gross movement parameters including (G) the total distance traveled, and (H) the average speed were monitored and plotted by scatter histograms (n=6/group; not significant as shown by one-way ANOVA).
Acquisition, housing, and treatment of PDX mice. Grade 3 invasive ductal carcinoma tumor fragments were harvested from a patient, genotyped for ER-, PR-, and Her2low, and were engrafted in the flank region of 6-to-7-week-old female NOD.Cg-Prkdcscid Il2rgtm1Wjl/SzJ mouse. These tumor-bearing mice were commercially purchased from Jackson Laboratories (Cat #TM00096). Since these mice are severely immunocompromised, special housing was required in a barrier room with restricted air flow and sterile foods. All animal studies were performed under an Institutional Animal Care and Use Committee-approved protocol (Study ID #). […] For the treatment, 2 mg/Kg bwt doses of both SIM-1 and SIM-2 were dissolved in 5% DMSO and then administered intraperitoneally every alternate day for two weeks and followed up for additional two weeks. To ensure safety and toxicity, vital health parameters such as body weight, heart rate, and body temperature were recorded every alternate day for one month. Tumor growth was assessed every alternate day for one month by a digital caliper. Tumor volume was estimated by the formula 0.5× (length×width2). The treatment started once the tumor reached 4 mm in size with an approximate volume of ˜30 mm^3. Mice received drugs for two weeks and left untreated for an additional two weeks to monitor the effect of drug withdrawal on the tumor size. On the penultimate day of the study, mice were injected with 100 μL of […] 2DG dye. The next day, mice were euthanized and then imaged in a Li—CoR infrared scanner to measure tumor size. After that, tumor tissues were harvested from the flank, washed in cold PBS, again imaged with a scalebar, and finally preserved in a −80° C. freezer for subsequent analyses such as genetic and immunoassays.
This example provides a representative experiment of the present invention that studies the effects of both SIM-1 and SIM-2 on the regression and growth arrest of tumors in vivo in the PDX mouse model of TNBC. […]

STAT3 = STAT3 (Homo sapiens, UniProt P40763); assay: Protein thermal shift assay with recombinant STAT3; type: binding; parameters: purchased Active motif 81095; conditions: for ΔTm of STAT3: cut-off 2° C.; for lowest concentration that significantly (>2° C.) shifted the melt curve of STAT3: as low as; for EC50: non-linear hyperbolic binding curve, read-out: EC50 (half-maximal binding, maximum fluorescence versus dose)
STAT3, sequence (P40763 whole entry): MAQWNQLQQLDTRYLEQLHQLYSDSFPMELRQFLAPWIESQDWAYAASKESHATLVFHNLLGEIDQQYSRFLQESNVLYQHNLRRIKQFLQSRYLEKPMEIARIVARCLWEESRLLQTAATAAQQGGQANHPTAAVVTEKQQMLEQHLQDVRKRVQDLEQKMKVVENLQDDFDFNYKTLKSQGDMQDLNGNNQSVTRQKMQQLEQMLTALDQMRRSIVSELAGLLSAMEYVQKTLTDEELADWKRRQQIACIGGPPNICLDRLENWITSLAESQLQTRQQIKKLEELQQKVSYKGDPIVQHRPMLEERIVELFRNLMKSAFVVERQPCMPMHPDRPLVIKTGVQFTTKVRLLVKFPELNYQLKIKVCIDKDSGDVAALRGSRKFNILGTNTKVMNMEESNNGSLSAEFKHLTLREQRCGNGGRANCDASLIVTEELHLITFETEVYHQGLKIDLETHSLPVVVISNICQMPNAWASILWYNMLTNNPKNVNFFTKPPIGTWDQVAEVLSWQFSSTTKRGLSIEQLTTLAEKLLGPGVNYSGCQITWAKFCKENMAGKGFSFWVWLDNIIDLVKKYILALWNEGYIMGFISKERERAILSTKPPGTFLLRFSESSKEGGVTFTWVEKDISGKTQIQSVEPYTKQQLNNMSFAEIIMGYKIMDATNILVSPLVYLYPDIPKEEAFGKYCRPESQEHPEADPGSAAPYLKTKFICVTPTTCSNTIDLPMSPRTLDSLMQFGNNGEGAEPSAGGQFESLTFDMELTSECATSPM
Protocol: FIG. 5 illustrates an embodiment of the present invention and illustrates evaluations of SIM-1 and SIM-2 as STAT3 inhibitors. (A) Protein thermal shift assay was performed to assess the melting of purified recombinant STAT3 (blue; 0.5 μg protein) (Tm=melting temperature=68.88° C.). The representative melting curves were derived after adding SIM-1 (red; 4 nM), SIM-2 (purple; 8 nM), and positive control stattic (grey; 20 nM) to the STAT3 protein. The differences of melting temperature (ΔTm) between pure protein and protein+ligands are −4.54° C., −4.16° C., and 0.39° C. for SIM-1, SIM-2, and stattic (ΔTm^cut-off>2° C.). (B) Phospho protein array analysis was conducted in cell lysates of MDA-MB-468 cells treated with DMSO control (top left), 25 ng/mL EGF (top right), EGF+10 nM SIM-1 (bottom left), and EGF+SIM-2 (bottom right) for 24 hrs. Each colored arrowhead represents a specific phosphoprotein, and the description was added in the bottom of array images. S=serine and Y=tyrosine. Relative levels of (C) Tyrosine 705 (Y705) phosphorylated STAT3, (D) Serine 727 (S727) phosphorylated STAT3, (E) Tyrosine 693 (Y693) phosphorylated STAT4, (F) Tyrosine 694 ([…]) phosphorylated STAT5A had been derived after normalizing the spot densities (n=5) with respective β-actin spots. Results are mean±SD of five different spot analyses. One-way ANOVA was adopted to test the significance of mean between groups at **p<0.01, and ****p<0.0001. Ns=no significance. Thermal shift assays of increasing doses of (G) SIM-1, (H) SIM-2, and (I) stattic with purified STAT1 protein (0.5 μg protein). The respective ΔTm values were given with the plot after matching with the color code. Similarly, full-length STAT5b protein melting was assessed with (J) SIM-1, (K) SIM-2, and (L) stattic. Results are confirmed after three different experiments.
FIG. 6 illustrates an embodiment of the present invention and illustrates dose-dependent curves of maximum fluorescence for SIM1 and SIM2. Protein thermal shift assay of recombinant STAT3 was performed with increasing doses of (A) SIM-1, (B) SIM-2, and (C) positive control “Stattic”. The maximum fluorescence for each dose was derived and then plotted in GraphPad Prism software with respective doses. The resultant non-liner hyperbolic curves provide half-maximal binding (EC50) for all three compounds.
This example provides a representative study of the present disclosure to test if SIM1 and SIM2 served as ligands of STAT3. Therefore, the present invention adopted a protein thermal shift assay in which […] of recombinant human STAT3 protein (active motif) was incubated with increasing doses of SIM1 and SIM2 followed by the execution of melting analysis starting from 25 to 95° C. as described elsewhere.

CCOC(=O)c1c(NC(C)=O)sc2c(Cl)c(/C=N/O)ccc12 [SIM-2, ethyl 2-acetamido-7-chloro-6-(hydroxyiminomethyl)-1-benzothiophene-3-carboxylate]
tumor growth by infrared 2DG image analysis (TM00096 human TNBC tumor): significantly arrested the growth
final tumor volume (mean±SD) (TM00096 human TNBC tumor): 134.09±41.77 mm^3
initial tumor volume (mean±SD) (TM00096 human TNBC tumor): 37.43±7.07 mm^3
ΔTm of STAT3 (STAT3; 6 nM ligand): −4.16 °C
ΔTm of STAT3 (STAT3; 8 nM ligand (FIG. 5A legend)): −4.16 °C
lowest concentration that significantly (>2° C.) shifted the melt curve of STAT3 (STAT3): 5 nM
EC50 (STAT3): 5.26 nM

O=C(O)CCC(=O)NCc1csc2ccc(Cl)cc12 [SIM-1, 4-[(5-chloro-1-benzothiophen-3-yl)methylamino]-4-oxobutanoic acid]
tumor growth by infrared 2DG image analysis (TM00096 human TNBC tumor): significantly arrested the growth
final tumor volume (mean±SD) (TM00096 human TNBC tumor): 126.69±29.98 mm^3
initial tumor volume (mean±SD) (TM00096 human TNBC tumor): 37.65±15.41 mm^3
ΔTm of STAT3 (STAT3; 4 nM ligand): −4.54 °C
lowest concentration that significantly (>2° C.) shifted the melt curve of STAT3 (STAT3): 5 nM
EC50 (STAT3): 4.58 nM
